Source: US20090069180A1 (priority 2006, published 2009)

Assays:
Pyricularia oryzae = type: cell-based; conditions: 125 ppm, microtiter plate, absorption at 405 nm on day 7 after inoculation, relative to active compound-free control

Q: Which relative pathogen growth (Pyricularia oryzae) does the source give for `CC1CCCN1c1nc(C#N)nc(Cl)c1/C(Br)=C(\Br)[Si](C)(C)C` (stereo not drawn) [C-1, 4-Chloro-2-cyano-5-((E)-1,2-dibromo-2-trimethylsilylvinyl)-6-(2-methylpyrrolidin-1-yl)-pyrimidine] here?
A: 0%

Q: What about the melting point of the same compound?
A: 166 to 168 °C

Q: With `CONC(=N)c1nc(Cl)c(/C(Br)=C(/Cl)Br)c(N2CCCC2C)n1` (stereo not drawn) [C-4, N-Methoxy-4-chlor-5-((E)-2-chloro-1,2-dibromovinyl)-6-(2-methyl-pyrrolidin-1-yl)-2-pyrimidinecarboximidamide] as the compound, how does the relative pathogen growth (Pyricularia oryzae) read?
A: 0%
